In publication PMC4503722, “Novel Phenotypic Outcomes Identified for a Public Collection of Approved Drugs from a Publicly Accessible Panel of Assays” (PLoS ONE, 2015):
Where a name gives a salt, the structure may show the parent alone. Read-outs that look alike come from different tables or passages of the source. Where a SMILES comes first, the peptide text is derived from it. [ ]: non-standard residue; d: D form. The star is where a group is joined. Sta = CC(C)C[C@H](N)[C@@H](O)CC(=O)O; Isovaleryl = CC(C)CC(=O)*

Experiments:
Assay in all cases: cells
HeLa cells = type: cell-based; details: for EC50: Homo sapiens, HeLa, read-out: CellCycle G2/M
DLD-1 = type: cell-based; details: Homo sapiens
INS-1E cells = type: cell-based, rat
[1] = test system: HCT116 cells treated with a GSK3β inhibitor; type: cell-based; details: Homo sapiens
[2] = test system: endothelial tube formation in co-cultures of ECFCs and ADSCs treated with VEGF; type: cell-based, human
HCT116 = type: cell-based; details: Homo sapiens
NCI-H716 cells = type: cell-based, Human
[3] = test system: nuclear β-catenin in C2C12 cells; type: cell-based
SW480 = type: cell-based; details: Homo sapiens
[4] = DLD-1, basal, read-out: Basal_Viability ATP DLD-1
[5] = Rattus norvegicus; IC50 / EC50; INS-1E; read-out: Insulin Secretion
[6] = HCT-116, GSK3b inhibitor pretreated, read-out: GSK3b inh pretreated_Viability ATP HCT116
[7] = Homo sapiens, IC50 / EC50; endothelial tube area, ADSC/ECFC co-culture; read-out: Anti-Angiogenesis
[8] = HCT-116, basal, read-out: Basal_Viability ATP HCT116
[9] = Homo sapiens; IC50 / EC50; NCI-H716; read-out: GLP 1 Secretion
[10] = Mus musculus, C2C12, IC50 / EC50; C2C12 beta-catenin translocation; read-out: Wnt Pathway
[11] = SW480, basal, read-out: Basal_Viability ATP SW480
[12] = S2 Table, 20 = no response at highest concentration
[13] = DLD-1, basal, DLD-1, read-out: Basal_Viability ATP DLD-1
[14] = Rattus norvegicus, INS-1E; read-out: Insulin Secretion
[15] = HCT-116, HCT116 pretreated with GSK3b inhibitor, read-out: GSK3b inh pretreated_Viability ATP HCT116
[16] = Homo sapiens; read-out: Anti-Angiogenesis
[17] = HCT-116, basal, HCT116, read-out: Basal_Viability ATP HCT116
[18] = Homo sapiens, NCI-H716; read-out: GLP 1 Secretion
[19] = Mus musculus, C2C12, S2 Table; module primary assay; 20 / 20.1 codes per legend; read-out: Wnt Pathway
[20] = SW480, basal, SW480, read-out: Basal_Viability ATP SW480
[21] = HCT-116, read-out: GSK3b inh pretreated_Viability ATP HCT116
[22] = DLD-1, 72 h, Table 2, 72 h, Cell TiterGlo, non-adherent, 20 coded, read-out: DLD-1 viab. IC50
[23] = Rattus norvegicus, INS-1E; read-out: Ins. sec. EC50
[24] = HCT-116, read-out: HCT-116 (GSK3β) viab. IC50, Table 2, GSK3β inhibitor LY2090314 20 nM, 72 h, Cell TiterGlo, 20 coded
[25] = HCT-116, 72 h, read-out: HCT-116 viab. IC50, Table 2, basal, 72 h, Cell TiterGlo, non-adherent, 20 coded
[26] = Homo sapiens, NCI-H716; read-out: GLP1 sec. EC50
[27] = SW480, 72 h, Table 2, 72 h, Cell TiterGlo, non-adherent, 20 coded, read-out: SW480 viab. IC50

CCCCCCCCCCCCCCCC[N+](C)(C)Cc1ccccc1 [Cetalkonium chloride]
EC50 (HeLa cells; IC50 / EC50): > 10 µM
IC50 (DLD-1; [4]): 3.92 µM
EC50 (INS-1E cells; [5]): > 10 µM
IC50 [1, 6]: 6.25 µM
IC50 [2, 7]: 2.53 µM
IC50 (HCT116; [8]): 3.47 µM
EC50 (NCI-H716 cells; [9]): > 10 µM
EC50 [3, 10]: > 10 µM
IC50 (SW480; [11]): 5.17 µM

CC(=O)N(O)CCCCCNC(=O)CCC(=O)N(O)CCCCCNC(=O)CCC(=O)N(O)CCCCCN [Deferoxamine]
EC50 (HeLa cells; [12]): > 10 µM
IC50 (DLD-1; [13]): > 20 µM
EC50 (INS-1E cells; [14]): > 10 µM
IC50 [1, 15]: > 20 µM
IC50 [2, 16]: 4.53 µM
IC50 (HCT116; [17]): 8.55 µM
EC50 (NCI-H716 cells; [18]): > 10 µM
EC50 [3, 19]: > 10 µM
IC50 (SW480; [20]): > 20 µM

Nc1nc(=O)n([C@@H]2O[C@H](CO)[C@@H](O)[C@@H]2F)cc1I [Fiacitabine]
EC50 (HeLa cells; IC50 / EC50): > 10 µM
IC50 (DLD-1; [4]): > 20 µM
EC50 (INS-1E cells; [5]): > 10 µM
IC50 [1, 6]: > 20 µM
IC50 [2, 7]: 3.47 µM
IC50 (HCT116; [8]): > 20 µM
EC50 (NCI-H716 cells; [9]): > 10 µM
EC50 [3, 10]: > 10 µM
IC50 (SW480; [11]): > 20 µM

CN1CC[C@H](c2c(O)cc(O)c3c(=O)cc(-c4ccccc4Cl)oc23)[C@H](O)C1 [Flavopiridol]
EC50 (HeLa cells; IC50 / EC50): > 10 µM
IC50 (DLD-1; [4]): 0.0684 µM
EC50 (INS-1E cells; [5]): > 10 µM
IC50 [1, 21]: 0.297 µM
IC50 [2, 7]: 0.114 µM
IC50 (HCT116; [8]): 16.7 µM
EC50 (NCI-H716 cells; [9]): > 10 µM
EC50 [3, 10]: 0.191 µM
IC50 (SW480; [11]): 2.11 µM

CO[C@@H]1[C@@H](OC)[C@H](C)[C@@](O)(CC(=O)O)O[C@H]1[C@H](C)[C@H]1O[C@@]2(CC[C@@](C)([C@H]3CC[C@@](C)([C@@H]4O[C@@H]([C@H]5O[C@](C)(O)[C@H](C)C[C@@H]5C)C[C@@H]4O[C@@H]4C[C@H](OC)[C@@H](OC)[C@H](C)O4)O3)O2)C[C@H](O)[C@H]1C [Maduramicin ammonium]
EC50 (HeLa cells; IC50 / EC50): > 10 µM
IC50 (DLD-1; [4]): 1.08 µM
EC50 (INS-1E cells; [5]): > 10 µM
IC50 [1, 6]: 1.16 µM
IC50 [2, 7]: 0.252 µM
IC50 (HCT116; [8]): 8.6 µM
EC50 (NCI-H716 cells; [9]): > 10 µM
EC50 [3, 10]: > 10 µM
IC50 (SW480; [11]): 1.45 µM

C[C@@H]1C[C@H]2[C@@H]3CCC4=CC(=O)C=C[C@]4(C)[C@@]3(Cl)[C@@H](O)C[C@]2(C)[C@@]1(OC(=O)c1ccco1)C(=O)CCl [Mometasone furoate]
EC50 (HeLa cells; [12]): > 10 µM
IC50 (DLD-1; [13]): 8.42 µM
EC50 (INS-1E cells; [14]): > 10 µM
IC50 [1, 15]: > 20 µM
IC50 [2, 16]: 4.99 µM
IC50 (HCT116; [17]): 14.5 µM
EC50 (NCI-H716 cells; [18]): > 10 µM
EC50 [3, 19]: > 10 µM
IC50 (SW480; [20]): 4.89 µM

CC(C)CC(=O)N[C@H](C(=O)N[C@H](C(=O)N[C@@H](CC(C)C)[C@@H](O)CC(=O)N[C@@H](C)C(=O)N[C@@H](CC(C)C)[C@@H](O)CC(=O)O)C(C)C)C(C)C [Pepstatin] (Isovaleryl-VV[Sta]A[Sta]-OH)
EC50 (HeLa cells; [12]): > 10 µM
IC50 (DLD-1; [13]): > 20 µM
EC50 (INS-1E cells; [14]): > 10 µM
IC50 [1, 15]: 17.7 µM
IC50 [2, 16]: 1.24 µM
IC50 (HCT116; [17]): > 20 µM
EC50 (NCI-H716 cells; [18]): > 10 µM
EC50 [3, 19]: > 10 µM
IC50 (SW480; [20]): > 20 µM

CC(C)OC(=O)OCOP(=O)(CO[C@H](C)Cn1cnc2c(N)ncnc21)OCOC(=O)OC(C)C [Tenofovir disoproxil fumarate]
EC50 (HeLa cells; IC50 / EC50): > 10 µM
IC50 (DLD-1; [4]): 19.6 µM
EC50 (INS-1E cells; [5]): > 10 µM
IC50 [1, 6]: > 20 µM
IC50 [2, 7]: 3.84 µM
IC50 (HCT116; [8]): > 20 µM
EC50 (NCI-H716 cells; [9]): > 10 µM
EC50 [3, 10]: > 10 µM
IC50 (SW480; [11]): > 20 µM

CCCCCCCCCCCCCCCC[N+](C)(C)CCN(Cc1ccc(OC)cc1)c1ncccn1 [Tonzonium bromide]
EC50 (HeLa cells; [12]): > 10 µM
IC50 (DLD-1; [13]): 4.05 µM
EC50 (INS-1E cells; [14]): > 10 µM
IC50 [1, 15]: 5.31 µM
IC50 [2, 16]: 3.07 µM
IC50 (HCT116; [17]): 3.41 µM
EC50 (NCI-H716 cells; [18]): 17.8 µM
EC50 [3, 19]: > 10 µM
IC50 (SW480; [20]): 5.08 µM

CN(C)/N=N/c1[nH]cnc1C(N)=O [dacarbazine]
EC50 (HeLa cells; [12]): > 10 µM
IC50 (DLD-1; [13]): > 20 µM
EC50 (INS-1E cells; [14]): > 10 µM
IC50 [1, 15]: > 20 µM
IC50 [2, 16]: 4.59 µM
IC50 (HCT116; [17]): > 20 µM
EC50 (NCI-H716 cells; [18]): > 10 µM
EC50 [3, 19]: > 10 µM
IC50 (SW480; [20]): > 20 µM

Cc1nc(Nc2ncc(C(=O)Nc3c(C)cccc3Cl)s2)cc(N2CCN(CCO)CC2)n1 [dasatinib, reference compound]
EC50 (HeLa cells; [12]): > 10 µM
IC50 (DLD-1; [22]): 3.5 µM
IC50 (DLD-1; [13]): 3.52 µM
EC50 (INS-1E cells; [23]): > 10 µM
IC50 [1, 24]: > 20 µM
IC50 ([2]; Homo sapiens; read-out: Anti-Angio IC50): > 10 µM
IC50 (HCT116; [25]): 11.9 µM
IC50 (HCT116; [17]): 11.9 µM
EC50 (NCI-H716 cells; [26]): > 10 µM
EC50 ([3]; Mus musculus, C2C12; read-out: Wnt Pathway): 0.0067 µM
EC50 ([3]; Mus musculus, C2C12; read-out: Wnt pot. EC50): 0.007 µM
IC50 (SW480; [27]): 7 µM
IC50 (SW480; [20]): 7.02 µM

Cc1ccc(S(=O)(=O)NC(=O)NN2CC3CCCC3C2)cc1 (stereo not drawn) [gliclazide, reference compound]
G2/M IC50 / EC50 (HeLa cells): 20 (values shown as 20 indicate that the compound was tested in concentration-response and showed no response at the highest concentration tested (e.g. IC50 > 20 μM))
EC50 (HeLa cells; [12]): > 10 µM
IC50 (DLD-1; [22]): > 20 µM
EC50 (INS-1E cells; [23]): 1.8 µM
EC50 (INS-1E cells; [14]): 1.83 µM
IC50 [1, 24]: > 20 µM
IC50 ([2]; Homo sapiens, Table 2; primary assay tube area; 20 = no response in concentration-response, 20.1 = inactive in single concentration testing; read-out: Anti-Angio IC50): > 10 µM
IC50 (HCT116; [25]): > 20 µM
EC50 (NCI-H716 cells; [26]): > 10 µM
EC50 ([3]; Mus musculus, C2C12, Table 2; C2C12; […]; 20 / 20.1 coded; read-out: Wnt pot. EC50): > 10 µM
IC50 (SW480; [27]): > 20 µM

O=c1[nH]c(=O)n([C@H]2C[C@H](O)[C@@H](CO)O2)cc1I [idoxuridine]
EC50 (HeLa cells; [12]): > 10 µM
IC50 (DLD-1; [13]): > 20 µM
EC50 (INS-1E cells; [14]): > 10 µM
IC50 [1, 15]: > 20 µM
IC50 [2, 16]: 0.681 µM
IC50 (HCT116; [17]): > 20 µM
EC50 (NCI-H716 cells; [18]): > 10 µM
EC50 [3, 19]: > 10 µM
IC50 (SW480; [20]): > 20 µM

CC[C@H](C)C(=O)O[C@H]1C[C@@H](C)C=C2C=C[C@H](C)[C@H](CC[C@@H]3C[C@@H](O)CC(=O)O3)[C@H]21 [lovastatin, reference compound]
EC50 (HeLa cells): > 10 µM
IC50 (DLD-1; DLD-1, read-out: Basal_Viability ATP DLD-1): 19.2 µM
EC50 (INS-1E cells; Rattus norvegicus, INS-1E, read-out: Insulin Secretion): > 10 µM
IC50 [1, 21]: 7.36 µM
IC50 ([2]; Homo sapiens, read-out: Anti-Angiogenesis): 3.27 µM
IC50 (HCT116; HCT-116, read-out: Basal_Viability ATP HCT116): 1.75 µM
EC50 (NCI-H716 cells; Homo sapiens, NCI-H716, read-out: GLP 1 Secretion): > 20 µM
EC50 ([3]; Mus musculus, C2C12, read-out: Wnt Pathway): > 10 µM
IC50 (SW480; SW480, read-out: Basal_Viability ATP SW480): 4.73 µM
